Assay results as given in paper PMC7937321 (Genes and Environment, 2021).

Tested on: TK6 cells
Assay: Toxicoproteomic analysis of treated TK6 cells (LC-MS/MS, DEPs, enrichment analysis)
Assay type: cell-based, human
Conditions: specific DEPs 24-h 800 μg/mL
Method: We conducted a proteomic analysis using TK6 cells treated by 4-nitroanthranilic acid that was negative in the short-term treatment and positive in the 24 h treatment. HC Blue No. 2 gave also same test results. […]
Raw MS data were processed by MaxQuant (version 1.6.3.3) supported by the Andromeda search engine for peak detection and quantification. […]
All NaN values of log2 LFQ intensities were converted to − 7, which is approximately equivalent to the minimum value of the LFQ intensities observed in the present study. Then, fold change values were calculated by dividing LFQ intensities (antilogarithms of the log2 LFQ intensities) into sample treated groups by intensities in non-treated (control) groups, respectively (4 and 24 h treated groups). Then, log2 fold changes were calculated. […]

Nc1cc([N+](=O)[O-])ccc1C(=O)O [4-Nitroanthranilic acid]
Count: GO:0005515 ~ protein binding (Down-regulated): 34
Count: GO:0005515 ~ protein binding (Up-regulated): 88
